Reference: ChEMBL document CHEMBL5331108, “Design and Synthesis of 4-Fluorophenyl-5-methylene-2(5H)-furanone Derivatives as Potent Quorum Sensing Inhibitors” (J Med Chem, 2023)
Values after ≈ are worked out from the molar mass of the structure shown.

System: Bacillus subtilis
Assay: Antibacterial activity against penicillin-susceptible Bacillus subtilis ATCC9372 assessed as inhibition of bacterial growth incubated for 20 hrs by CLSI protocol based microdilution method
Type: functional

| SMILES | MIC [µg/mL] |
| --- | --- |
| C=C1OC(=O)C(CNC(=O)CC)=C1c1ccc(F)cc1 | 512 (≈ 1860 µM) |
| C=C1C(c2ccc(F)cc2)=C(CNC(=O)c2ccc(C)cc2)C(=O)N1CCC | > 512 |
| C=C1OC(=O)C(CNC(=O)c2ccccc2C)=C1c1ccc(F)cc1 | 128 (≈ 379 µM) |
| C=C1OC(=O)C(CNC(=O)c2ccc(C)cc2)=C1c1ccccc1Br | > 512 |
| C=C1OC(=O)C(CNC(=O)c2ccc(C)cc2)=C1c1ccccc1F | > 512 |
| C=C1OC(=O)C(CNC(=O)c2ccc(C)cc2)=C1c1cccc(Br)c1 | > 512 |
| C=C1OC(=O)C(CNC(=O)CCCC)=C1c1ccc(F)cc1 | 32 (≈ 105 µM) |
| C=C1C(c2ccc(F)cc2)=C(CNC(=O)c2ccc(C)cc2)C(=O)N1c1ccccc1Cl | > 512 |
| C=C1OC(=O)C(CNC(=O)CCCCCCCC)=C1c1ccc(F)cc1 | > 512 |
| C=C1OC(=O)C(CNC(=O)c2ccc(C)cc2)=C1c1ccc(-c2ccccc2)cc1 | > 512 |
| C=C1OC(=O)C(CNC(=O)c2ccc(C)cc2)=C1c1cccc(F)c1 | > 512 |
| C=C1OC(=O)C(CNC(=O)c2ccccc2OC)=C1c1ccc(F)cc1 | > 512 |
| C=C1C(c2ccc(F)cc2)=C(CNC(=O)c2ccc(C)cc2)C(=O)N1CCCCC | > 512 |
| C=C1OC(=O)C(CNC(=O)c2ccc(C)cc2)=C1c1ccc(Cl)cc1 | > 512 |
| C=C1OC(=O)C(CNC(=O)c2ccccc2F)=C1c1ccc(F)cc1 | > 512 |

System: Bacillus pumilus
Assay: Antibacterial activity against penicillin-susceptible Bacillus pumilus CMCC63202 assessed as inhibition of bacterial growth incubated for 20 hrs by CLSI protocol based microdilution method
Type: functional

| SMILES | MIC [µg/mL] |
| --- | --- |
| C=C1OC(=O)C(CNC(=O)CC)=C1c1ccc(F)cc1 | 256 (≈ 930 µM) |
| C=C1C(c2ccc(F)cc2)=C(CNC(=O)c2ccc(C)cc2)C(=O)N1CCC | 512 (≈ 1350 µM) |
| C=C1OC(=O)C(CNC(=O)c2ccccc2C)=C1c1ccc(F)cc1 | 32 (≈ 94.9 µM) |
| C=C1OC(=O)C(CNC(=O)c2ccc(C)cc2)=C1c1ccccc1Br | > 512 |
| C=C1OC(=O)C(CNC(=O)c2ccc(C)cc2)=C1c1ccccc1F | > 512 |
| C=C1OC(=O)C(CNC(=O)c2ccc(C)cc2)=C1c1cccc(Br)c1 | > 512 |
| C=C1OC(=O)C(CNC(=O)CCCC)=C1c1ccc(F)cc1 | 16 (≈ 52.7 µM) |
| C=C1C(c2ccc(F)cc2)=C(CNC(=O)c2ccc(C)cc2)C(=O)N1c1ccccc1Cl | 512 (≈ 1150 µM) |
| C=C1OC(=O)C(CNC(=O)CCCCCCCC)=C1c1ccc(F)cc1 | > 512 |
| C=C1OC(=O)C(CNC(=O)c2ccc(C)cc2)=C1c1ccc(-c2ccccc2)cc1 | > 512 |
| C=C1OC(=O)C(CNC(=O)c2ccc(C)cc2)=C1c1cccc(F)c1 | > 512 |
| C=C1OC(=O)C(CNC(=O)c2ccccc2OC)=C1c1ccc(F)cc1 | > 512 |
| C=C1C(c2ccc(F)cc2)=C(CNC(=O)c2ccc(C)cc2)C(=O)N1CCCCC | 512 (≈ 1260 µM) |
| C=C1OC(=O)C(CNC(=O)c2ccc(C)cc2)=C1c1ccc(Cl)cc1 | > 512 |
| C=C1OC(=O)C(CNC(=O)c2ccccc2F)=C1c1ccc(F)cc1 | > 512 |

System: Staphylococcus aureus
Assay: Antibacterial activity against erthromycin-susceptible Staphylococcus aureus ATCC25923 assessed as inhibition of bacterial growth incubated for 20 hrs by CLSI protocol based microdilution method
Type: functional

| SMILES | MIC [µg/mL] |
| --- | --- |
| C=C1OC(=O)C(CNC(=O)CC)=C1c1ccc(F)cc1 | 128 (≈ 465 µM) |
| C=C1C(c2ccc(F)cc2)=C(CNC(=O)c2ccc(C)cc2)C(=O)N1CCC | > 512 |
| C=C1OC(=O)C(CNC(=O)c2ccccc2C)=C1c1ccc(F)cc1 | 32 (≈ 94.9 µM) |
| C=C1OC(=O)C(CNC(=O)c2ccc(C)cc2)=C1c1ccccc1Br | > 512 |
| C=C1OC(=O)C(CNC(=O)c2ccc(C)cc2)=C1c1ccccc1F | > 512 |
| C=C1OC(=O)C(CNC(=O)c2ccc(C)cc2)=C1c1cccc(Br)c1 | > 512 |
| C=C1OC(=O)C(CNC(=O)CCCC)=C1c1ccc(F)cc1 | 4 (≈ 13.2 µM) |
| C=C1C(c2ccc(F)cc2)=C(CNC(=O)c2ccc(C)cc2)C(=O)N1c1ccccc1Cl | > 512 |
| C=C1OC(=O)C(CNC(=O)CCCCCCCC)=C1c1ccc(F)cc1 | > 512 |
| C=C1OC(=O)C(CNC(=O)c2ccc(C)cc2)=C1c1ccc(-c2ccccc2)cc1 | > 512 |
| C=C1OC(=O)C(CNC(=O)c2ccc(C)cc2)=C1c1cccc(F)c1 | > 512 |
| C=C1OC(=O)C(CNC(=O)c2ccccc2OC)=C1c1ccc(F)cc1 | > 512 |
| C=C1C(c2ccc(F)cc2)=C(CNC(=O)c2ccc(C)cc2)C(=O)N1CCCCC | > 512 |
| C=C1OC(=O)C(CNC(=O)c2ccc(C)cc2)=C1c1ccc(Cl)cc1 | > 512 |
| C=C1OC(=O)C(CNC(=O)c2ccccc2F)=C1c1ccc(F)cc1 | > 512 |

System: Staphylococcus aureus
Assay: Antibacterial activity against methicillin-resistant Staphylococcus aureus ATCC43300 assessed as inhibition of bacterial growth incubated for 20 hrs by CLSI protocol based microdilution method
Type: functional

| SMILES | MIC [µg/mL] |
| --- | --- |
| C=C1OC(=O)C(CNC(=O)CC)=C1c1ccc(F)cc1 | 256 (≈ 930 µM) |
| C=C1C(c2ccc(F)cc2)=C(CNC(=O)c2ccc(C)cc2)C(=O)N1CCC | > 512 |
| C=C1OC(=O)C(CNC(=O)c2ccccc2C)=C1c1ccc(F)cc1 | 64 (≈ 190 µM) |
| C=C1OC(=O)C(CNC(=O)c2ccc(C)cc2)=C1c1ccccc1Br | > 512 |
| C=C1OC(=O)C(CNC(=O)c2ccc(C)cc2)=C1c1ccccc1F | > 512 |
| C=C1OC(=O)C(CNC(=O)c2ccc(C)cc2)=C1c1cccc(Br)c1 | > 512 |
| C=C1OC(=O)C(CNC(=O)CCCC)=C1c1ccc(F)cc1 | 32 (≈ 105 µM) |
| C=C1C(c2ccc(F)cc2)=C(CNC(=O)c2ccc(C)cc2)C(=O)N1c1ccccc1Cl | > 512 |
| C=C1OC(=O)C(CNC(=O)CCCCCCCC)=C1c1ccc(F)cc1 | > 512 |
| C=C1OC(=O)C(CNC(=O)c2ccc(C)cc2)=C1c1ccc(-c2ccccc2)cc1 | > 512 |
| C=C1OC(=O)C(CNC(=O)c2ccc(C)cc2)=C1c1cccc(F)c1 | > 512 |
| C=C1OC(=O)C(CNC(=O)c2ccccc2OC)=C1c1ccc(F)cc1 | > 512 |
| C=C1C(c2ccc(F)cc2)=C(CNC(=O)c2ccc(C)cc2)C(=O)N1CCCCC | > 512 |
| C=C1OC(=O)C(CNC(=O)c2ccc(C)cc2)=C1c1ccc(Cl)cc1 | > 512 |
| C=C1OC(=O)C(CNC(=O)c2ccccc2F)=C1c1ccc(F)cc1 | 128 (≈ 375 µM) |

System: Pseudomonas aeruginosa
Assay: Antibacterial activity against penicillin-susceptible Pseudomonas aeruginosa ATCC27853 assessed as inhibition of bacterial growth incubated for 20 hrs by CLSI protocol based microdilution method
Type: functional

| SMILES | MIC [µg/mL] |
| --- | --- |
| C=C1OC(=O)C(CNC(=O)CC)=C1c1ccc(F)cc1 | > 512 |
| C=C1C(c2ccc(F)cc2)=C(CNC(=O)c2ccc(C)cc2)C(=O)N1CCC | 256 (≈ 676 µM) |
| C=C1OC(=O)C(CNC(=O)c2ccccc2C)=C1c1ccc(F)cc1 | > 512 |
| C=C1OC(=O)C(CNC(=O)c2ccc(C)cc2)=C1c1ccccc1Br | > 512 |
| C=C1OC(=O)C(CNC(=O)c2ccc(C)cc2)=C1c1ccccc1F | > 512 |
| C=C1OC(=O)C(CNC(=O)c2ccc(C)cc2)=C1c1cccc(Br)c1 | > 512 |
| C=C1OC(=O)C(CNC(=O)CCCC)=C1c1ccc(F)cc1 | > 512 |
| C=C1C(c2ccc(F)cc2)=C(CNC(=O)c2ccc(C)cc2)C(=O)N1c1ccccc1Cl | > 512 |
| C=C1OC(=O)C(CNC(=O)CCCCCCCC)=C1c1ccc(F)cc1 | > 512 |
| C=C1OC(=O)C(CNC(=O)c2ccc(C)cc2)=C1c1ccc(-c2ccccc2)cc1 | > 512 |
| C=C1OC(=O)C(CNC(=O)c2ccc(C)cc2)=C1c1cccc(F)c1 | > 512 |
| C=C1OC(=O)C(CNC(=O)c2ccccc2OC)=C1c1ccc(F)cc1 | > 512 |
| C=C1C(c2ccc(F)cc2)=C(CNC(=O)c2ccc(C)cc2)C(=O)N1CCCCC | > 512 |
| C=C1OC(=O)C(CNC(=O)c2ccc(C)cc2)=C1c1ccc(Cl)cc1 | > 512 |
| C=C1OC(=O)C(CNC(=O)c2ccccc2F)=C1c1ccc(F)cc1 | > 512 |

System: Escherichia coli
Assay: Antibacterial activity against penicillin-susceptible Escherichia coli ATCC25922 assessed as inhibition of bacterial growth incubated for 20 hrs by CLSI protocol based microdilution method
Type: functional

| SMILES | MIC [µg/mL] |
| --- | --- |
| C=C1OC(=O)C(CNC(=O)CC)=C1c1ccc(F)cc1 | > 512 |
| C=C1C(c2ccc(F)cc2)=C(CNC(=O)c2ccc(C)cc2)C(=O)N1CCC | > 512 |
| C=C1OC(=O)C(CNC(=O)c2ccccc2C)=C1c1ccc(F)cc1 | > 512 |
| C=C1OC(=O)C(CNC(=O)c2ccc(C)cc2)=C1c1ccccc1Br | > 512 |
| C=C1OC(=O)C(CNC(=O)c2ccc(C)cc2)=C1c1ccccc1F | > 512 |
| C=C1OC(=O)C(CNC(=O)c2ccc(C)cc2)=C1c1cccc(Br)c1 | > 512 |
| C=C1OC(=O)C(CNC(=O)CCCC)=C1c1ccc(F)cc1 | > 512 |
| C=C1C(c2ccc(F)cc2)=C(CNC(=O)c2ccc(C)cc2)C(=O)N1c1ccccc1Cl | > 512 |
| C=C1OC(=O)C(CNC(=O)CCCCCCCC)=C1c1ccc(F)cc1 | > 512 |
| C=C1OC(=O)C(CNC(=O)c2ccc(C)cc2)=C1c1ccc(-c2ccccc2)cc1 | > 512 |
| C=C1OC(=O)C(CNC(=O)c2ccc(C)cc2)=C1c1cccc(F)c1 | > 512 |
| C=C1OC(=O)C(CNC(=O)c2ccccc2OC)=C1c1ccc(F)cc1 | > 512 |
| C=C1C(c2ccc(F)cc2)=C(CNC(=O)c2ccc(C)cc2)C(=O)N1CCCCC | > 512 |
| C=C1OC(=O)C(CNC(=O)c2ccc(C)cc2)=C1c1ccc(Cl)cc1 | > 512 |
| C=C1OC(=O)C(CNC(=O)c2ccccc2F)=C1c1ccc(F)cc1 | > 512 |

System: Pseudomonas aeruginosa
Assay: Antibacterial activity against wild type Pseudomonas aeruginosa […] CGMCC1.12483 assessed as inhibition of bacterial growth incubated for 20 hrs by CLSI protocol based microdilution method
Type: functional

| SMILES | MIC [µg/mL] |
| --- | --- |
| C=C1OC(=O)C(CNC(=O)CC)=C1c1ccc(F)cc1 | 512 (≈ 1860 µM) |
| C=C1C(c2ccc(F)cc2)=C(CNC(=O)c2ccc(C)cc2)C(=O)N1CCC | 512 (≈ 1350 µM) |
| C=C1OC(=O)C(CNC(=O)c2ccccc2C)=C1c1ccc(F)cc1 | > 512 |
| C=C1OC(=O)C(CNC(=O)c2ccc(C)cc2)=C1c1ccccc1Br | > 512 |
| C=C1OC(=O)C(CNC(=O)c2ccc(C)cc2)=C1c1ccccc1F | > 512 |
| C=C1OC(=O)C(CNC(=O)c2ccc(C)cc2)=C1c1cccc(Br)c1 | > 512 |
| C=C1OC(=O)C(CNC(=O)CCCC)=C1c1ccc(F)cc1 | > 512 |
| C=C1C(c2ccc(F)cc2)=C(CNC(=O)c2ccc(C)cc2)C(=O)N1c1ccccc1Cl | 512 (≈ 1150 µM) |
| C=C1OC(=O)C(CNC(=O)CCCCCCCC)=C1c1ccc(F)cc1 | > 512 |
| C=C1OC(=O)C(CNC(=O)c2ccc(C)cc2)=C1c1ccc(-c2ccccc2)cc1 | > 512 |
| C=C1OC(=O)C(CNC(=O)c2ccc(C)cc2)=C1c1cccc(F)c1 | > 512 |
| C=C1OC(=O)C(CNC(=O)c2ccccc2OC)=C1c1ccc(F)cc1 | > 512 |
| C=C1C(c2ccc(F)cc2)=C(CNC(=O)c2ccc(C)cc2)C(=O)N1CCCCC | 512 (≈ 1260 µM) |
| C=C1OC(=O)C(CNC(=O)c2ccc(C)cc2)=C1c1ccc(Cl)cc1 | > 512 |
| C=C1OC(=O)C(CNC(=O)c2ccccc2F)=C1c1ccc(F)cc1 | > 512 |
